In patent publication US20210121426A1, “BLOOD PURIFICATION BY ALKALINIZING AGENT” (TOHOKU UNIVERSITY, priority 2017, published 2021):
Marks after values point to notes of the source that are not given here.

Columns and labels:
indoxyl sulfate = experiment: Human clinical trial in CKD patients: indoxyl sulfate in plasma and early morning urine (LC-MS/MS); type: in vivo; parameters: key to Influence on concentration of IS / Influence on IS U/P ratio: Excellent effects: ◯; Poor effects: X; No significant difference: —; (◯): whether or not there is an effect of promoting excretion of indoxyl sulfate into the urine cannot be determined
Experimental: (§1) 1. […] Patients were assigned to each group so that age, sex, presence of diabetes, and eGFR were not biased. Each group was treated according to the “CKD medical care guide-summary of treatment” (hereinafter referred to as standard treatment).
(§2) An alkalinizing agent was not administered to the control group. […] A pH of early morning urine was controlled over time so that the dosage could be increased up to 6 tablets, 3 times a day (morning, noon, evening) as needed according to the discretion of the physician in cases where a pH of early morning urine was less than pH 6.5. To the group B, 3 tablets a day in which each tablet contained 500 mg of sodium bicarbonate were orally administered 3 times a day (morning, noon, evening) for 24 weeks. A pH of early morning urine was controlled over time so that the dosage could be increased up to 6 tablets, 3 times a day (morning, noon, evening) as needed according to the discretion of the physician in cases where a pH of early morning urine was less than pH 6.5.
(§3) Early morning urine and blood were collected before the start of administration, and 6 weeks, 12 weeks, and 24 weeks after the start of administration, and each specimen was stored at −80° C. Methods used in the present field for indoxyl sulfate, p-cresyl sulfate, phenylacetyl-L-glutamine, hippuric acid, and argininosuccinic acid in urine and blood (Sato, E., et. al., Metabolic alteration by indoxyl sulfate in skeletal muscle induce uremic sarcopenia in chronic kidney disease., Sci Rep. 2016 Nov. 10; 6:36618. doi: 10.1038/srep36618, and the like) were referred to, and quantitative analysis was performed using the following liquid chromatography triple quadrupole mass spectrometer (LC-MS/MS).
(§4) For LC, NANOSPACE SI-2 (manufactured by Shiseido) was used, and […] MGM was selected as the analytical column.
(§5) For MS, TSQ Quantiva (manufactured by Thermo Fisher Scientific Co., Ltd.) was used, and five compounds were ionized in the negative mode and detected using the Selected Reaction Monitoring method. The quantitative value was calculated using a calibration curve prepared with a standard solution of each compound.
(§6) For statistical analysis, the Mann-Whitney test was used for comparison between groups, and the Wilcoxon test was used for comparison of changes over time. The Pearson test was used for correlation.
(§7) Then, the average value and SD of each group were calculated for (i) to (ix) above. For each of (iv) to (ix) above, the average value and SD of each group were calculated for all data of 6 weeks, 12 weeks, and 24 weeks after the start of administration in each group.

hippuric acid = experiment: Human clinical trial in CKD patients: hippuric acid in plasma and early morning urine (LC-MS/MS); type: in vivo; parameters: key to Influence on concentration of HA / Influence on HA U/P ratio: Excellent effects: ◯; Poor effects: X; No significant difference: —; (◯): whether or not there is an effect of promoting excretion of indoxyl sulfate into the urine cannot be determined
Experimental: as §1, §2, §3, §4, §5, §6, §7

argininosuccinic acid = experiment: Urine argininosuccinic acid (ASA) corrected by urinary specific gravity; type: in vivo, human
Excerpt: Medical Examination, Vol. 44, No. 1, 1995, pages 79-83 by Tetsuo Aoki et al. was referred to. A urinary specific gravity 1.022 was converted into a reference value.
Specific gravity correction value (unit/1.022·UG)=actual measurement value×(1.022−1.000)/(specific gravity value−1.000)

[1] = 0 W, before the start of administration
[2] = 6-24 W, all data of 6, 12 and 24 weeks
[3] = Plasma, comparison with reference drug
[4] = Urine, comparison with reference drug
[5] = compared to before administration

SMILES: O=C([O-])O.[Na+] [Bicarbonate, sodium bicarbonate]
- Indoxyl Sulfate-Urine/Plasma ratio (indoxyl sulfate; [1]): 55.5 ± 43.6
- Plasma Indoxyl Sulfate (indoxyl sulfate; [1]): 1338 ± 770 ng/mL
- Urine Indoxyl Sulfate (early morning urine) (indoxyl sulfate; [1]): 54379 ± 40259 ng/mL
- Indoxyl Sulfate-Urine/Plasma ratio (indoxyl sulfate; [2]): 46.2 ± 33.7^d
- Indoxyl Sulfate-Urine/Plasma ratio, change from week 0 (indoxyl sulfate; [2]): −10.33 ± 36.35
- Plasma Indoxyl Sulfate (indoxyl sulfate; [2]): 1426 ± 930 ng/mL
- Plasma Indoxyl Sulfate, change from week 0 (indoxyl sulfate; [2]): 107.0 ± 695.8 ng/mL
- Urine Indoxyl Sulfate (early morning urine) (indoxyl sulfate; [2]): 48954 ± 35769^d ng/mL
- Urine Indoxyl Sulfate, change from week 0 (indoxyl sulfate; [2]): -5425 ± 38514 ng/mL
- Indoxyl Sulfate-Urine/Plasma ratio (indoxyl sulfate; 6 W): 51.7 ± 36.4
- Indoxyl Sulfate-Urine/Plasma ratio, change from week 0 (indoxyl sulfate; 6 W): −3.81 ± 37.48
- Plasma Indoxyl Sulfate (indoxyl sulfate; 6 W): 1365 ± 821 ng/mL
- Plasma Indoxyl Sulfate, change from week 0 (indoxyl sulfate; 6 W): 27.5 ± 523.0 ng/mL
- Urine Indoxyl Sulfate (early morning urine) (indoxyl sulfate; 6 W): 52510 ± 39229 ng/mL
- Urine Indoxyl Sulfate, change from week 0 (indoxyl sulfate; 6 W): -1869 ± 19390 ng/mL
- Indoxyl Sulfate-Urine/Plasma ratio (indoxyl sulfate; 12 W): 35.3 ± 26.4
- Indoxyl Sulfate-Urine/Plasma ratio, change from week 0 (indoxyl sulfate; 12 W): −22.41 ± 35.49
- Plasma Indoxyl Sulfate (indoxyl sulfate; 12 W): 1432 ± 1031 ng/mL
- Plasma Indoxyl Sulfate, change from week 0 (indoxyl sulfate; 12 W): 153.1 ± 887.4 ng/mL
- Urine Indoxyl Sulfate (early morning urine) (indoxyl sulfate; 12 W): 37860 ± 26401 ng/mL
- Urine Indoxyl Sulfate, change from week 0 (indoxyl sulfate; 12 W): -16519 ± 40380 ng/mL
- Indoxyl Sulfate-Urine/Plasma ratio (indoxyl sulfate; 24 W): 50.7 ± 36.5^c
- Indoxyl Sulfate-Urine/Plasma ratio, change from week 0 (indoxyl sulfate; 24 W): −4.78 ± 35.33
- Plasma Indoxyl Sulfate (indoxyl sulfate; 24 W): 1481 ± 988 ng/mL
- Plasma Indoxyl Sulfate, change from week 0 (indoxyl sulfate; 24 W): 143.4 ± 682.5 ng/mL
- Urine Indoxyl Sulfate (early morning urine) (indoxyl sulfate; 24 W): 56492 ± 39593 ng/mL
- Urine Indoxyl Sulfate, change from week 0 (indoxyl sulfate; 24 W): 2113 ± 49356 ng/mL
- Influence on concentration of IS (indoxyl sulfate; Plasma, comparison with Cont): —
- Influence on concentration of IS (indoxyl sulfate; [3]): X
- Influence on IS U/P ratio (indoxyl sulfate; comparison with Cont): ◯
- Influence on IS U/P ratio (indoxyl sulfate; comparison with reference drug): X
- Influence on concentration of IS (indoxyl sulfate; Urine, comparison with Cont): (◯)
- Influence on concentration of IS (indoxyl sulfate; [4]): X
- concentration of indoxyl sulfate in blood (indoxyl sulfate; [5]): such an effect was not recognized
- concentration of indoxyl sulfate in urine (indoxyl sulfate; [5]): such an effect was not recognized
- Hippuric Acid-Urine/Plasma ratio (hippuric acid; [1]): 304.5 ± 361.8
- Plasma Hippuric Acid (hippuric acid; [1]): 742 ± 706 ng/mL
- Urine Hippuric Acid (early morning urine) (hippuric acid; [1]): 109249 ± 96133 ng/mL
- Hippuric Acid-Urine/Plasma ratio (hippuric acid; [2]): 265.8 ± 812.9
- Hippuric Acid-Urine/Plasma ratio, change from week 0 (hippuric acid; [2]): −50.2 ± 688.3^b
- Plasma Hippuric Acid (hippuric acid; [2]): 1091 ± 991 ng/mL
- Plasma Hippuric Acid, change from week 0 (hippuric acid; [2]): 342.1 ± 838.5 ^e ng/mL
- Urine Hippuric Acid (early morning urine) (hippuric acid; [2]): 103027 ± 76475 ng/mL
- Urine Hippuric Acid, change from week 0 (hippuric acid; [2]): -6221 ± 73493 ng/mL
- Hippuric Acid-Urine/Plasma ratio (hippuric acid; 6 W): 148.7 ± 119.2^f
- Hippuric Acid-Urine/Plasma ratio, change from week 0 (hippuric acid; 6 W): −155.8 ± 312.2^a
- Plasma Hippuric Acid (hippuric acid; 6 W): 809 ± 496 ng/mL
- Plasma Hippuric Acid, change from week 0 (hippuric acid; 6 W): 66.6 ± 681.8 ng/mL
- Urine Hippuric Acid (early morning urine) (hippuric acid; 6 W): 98283 ± 80730 ng/mL
- Urine Hippuric Acid, change from week 0 (hippuric acid; 6 W): -10966 ± 75133 ng/mL
- Hippuric Acid-Urine/Plasma ratio (hippuric acid; 12 W): 151.8 ± 115.8
- Hippuric Acid-Urine/Plasma ratio, change from week 0 (hippuric acid; 12 W): −161.2 ± 302.1
- Plasma Hippuric Acid (hippuric acid; 12 W): 994 ± 806 ng/mL
- Plasma Hippuric Acid, change from week 0 (hippuric acid; 12 W): 230.0 ± 655.6 ng/mL
- Urine Hippuric Acid (early morning urine) (hippuric acid; 12 W): 96346 ± 70315 ng/mL
- Urine Hippuric Acid, change from week 0 (hippuric acid; 12 W): -12903 ± 61236 ng/mL
- Hippuric Acid-Urine/Plasma ratio (hippuric acid; 24 W): 523.0 ± 1438
- Hippuric Acid-Urine/Plasma ratio, change from week 0 (hippuric acid; 24 W): 191.1 ± 1147
- Plasma Hippuric Acid (hippuric acid; 24 W): 1465 ± 1387^c ng/mL
- Plasma Hippuric Acid, change from week 0 (hippuric acid; 24 W): 722.3 ± 1023 ^c ng/mL
- Urine Hippuric Acid (early morning urine) (hippuric acid; 24 W): 114453 ± 81562 ng/mL
- Urine Hippuric Acid, change from week 0 (hippuric acid; 24 W): 5204 ± 85546 ng/mL
- Influence on concentration of HA (hippuric acid; Plasma, comparison with Cont): X
- Influence on concentration of HA (hippuric acid; [3]): —
- Influence on HA U/P ratio (hippuric acid; comparison with Cont): X
- Influence on HA U/P ratio (hippuric acid; comparison with reference drug): —
- Influence on concentration of HA (hippuric acid; Urine, comparison with Cont): —
- Influence on concentration of HA (hippuric acid; [4]): —
- Urine ASA, specific gravity corrected (argininosuccinic acid; 0 W): 5.87 ± 5.13 μg · mL^−1/1.022 · UG
- Urine ASA, specific gravity corrected (argininosuccinic acid; 6-24 W, all data): 5.02 ± 3.37 μg · mL^−1/1.022 · UG
- Urine ASA, specific gravity corrected, % Relative value vs week 0 (argininosuccinic acid; 6-24 W, all data): 97 ± 31%
- Urine ASA, specific gravity corrected, difference vs week 0 (argininosuccinic acid; 6-24 W, all data): −0.85 ± 2.76 μg · mL^−1/1.022 · UG
- Urine ASA, specific gravity corrected (argininosuccinic acid; 6 W): 5.47 ± 3.87 μg · mL^−1/1.022 · UG
- Urine ASA, specific gravity corrected, % Relative value vs week 0 (argininosuccinic acid; 6 W): 101 ± 32%
- Urine ASA, specific gravity corrected, difference vs week 0 (argininosuccinic acid; 6 W): −0.40 ± 2.25 μg · mL^−1/1.022 · UG
- Urine ASA, specific gravity corrected (argininosuccinic acid; 12 W): 4.66 ± 2.78 μg · mL^−1/1.022 · UG
- Urine ASA, specific gravity corrected, % Relative value vs week 0 (argininosuccinic acid; 12 W): 93 ± 29%
- Urine ASA, specific gravity corrected, difference vs week 0 (argininosuccinic acid; 12 W): −0.21 ± 3.04 μg · mL^−1/1.022 · UG
- Urine ASA, specific gravity corrected (argininosuccinic acid; 24 W): 4.93 ± 3.58 μg · mL^−1/1.022 · UG
- Urine ASA, specific gravity corrected, % Relative value vs week 0 (argininosuccinic acid; 24 W): 97 ± 33%
- Urine ASA, specific gravity corrected, difference vs week 0 (argininosuccinic acid; 24 W): −0.94 ± 3.02 μg · mL^−1/1.022 · UG
